Results as given in patent US12213479B2, “Monoterpenoid/phenylpropanoid-containing compounds and methods of their making and use as herbicides” (KITTRICH CORPORATION, priority 2016, dated 2025).
“Also recorded” adds a separate entry of the source.

Assays:
Corn = assay: Pre-emergence assay, corn; type: in vivo; conditions: for pre-emergent effect on corn (words): 1%, 3-weeks after application; for qualitative growth assessment, pre-emergence: Corn, soil treated with 40 ml of 1% solution 1 day after planting, 3 weeks after application
Procedure: Corn plants were planted under ½″ of potting soil and watered every 2-3 days as necessary. Plants were grown in potting plants (6″ wide×4.5″ deep) with approximately 800 mL of soil for each plant. Plants germinated approximately 4-7 days after being planted. Plants were grown in a greenhouse under a constant temperature and light environment (25±5° C., 12 hr: 12 hr light: dark cycle).
(§1) 1-day after seeds/beans were planted, soil was drenched with 40 ml of formulation with 1% active ingredient. This was done to assess germination inhibition in the soil. […] Qualitative growth assessment was made by comparing the treated plants to the untreated controls.

Wood sorrel = assay: Pre-emergence assay, wood sorrel; type: in vivo; conditions: for pre-emergent effect on wood sorrel (words): 1%, 3-weeks after application; for qualitative growth assessment, pre-emergence: Sorrel, soil treated with 40 ml of 1% solution 1 day after planting, 3 weeks after application
Procedure: as §1

[1] = tested on: Dandelion (Taraxacum officinale); assay: Weed soil drench assay, dandelion; type: in vivo; conditions: for Percentage mortality: Dandelions, 40 mL of 5% solution, soil drench; for chlorosis and phytotoxicity: dandelions, 40 mL of 5%, 2 days after application
Procedure: Dandelion seeds were obtained from native prairie fields in Ames, IA. Individual seeds were sown for each pot (6″ wide×4.5″ deep) with approximately 800 mL of soil for each plant. Only plants that germinated were used for the study. Plants were treated 1-2 weeks post emergence. Plants were watered every 2-3 days as needed.
(§2) Formulations of the various active ingredients were created using the monoterpenoid derivatives, potassium hydroxide, and Triton-X 100™ to aid in the solvation of the active ingredient. Formulations included 5% active ingredient by weight (0.5-1 g/100 ml water), with a 1:1 molar ratio of potassium hydroxide used to aid in the solvation (135-269 mg/100 mL for both thymyloxyacetic acid and carvacryloxyacetic acid). […] Observations were performed 2 days and 3 weeks after soil drench to determine the effects of the treatments on the various types and stages of plants. Phytotoxicity is reported as percentage of total plants treated compared to a control treatment that was exposed to a similar formulation (without the active monoterpenoid derivatives).

corn seeds = assay: Germination assay, corn seeds coated with compound; conditions: for corn seed germination at day 3: seed coating
Soybean plants = assay: Soil drench assay, soybean plants; type: in vivo; set-up: key to phytotoxicity (qualitative), soil drench: NOE: No Observable Effect; XXX: Dead; -: the lowest phytotoxic effect; --: phytotoxicity that did not result in death; ---: phytotoxicity that did not result in death; ------: the highest; conditions: for phytotoxicity (qualitative), soil drench: Soybean, 40 mL
Procedure: Soybean plants were planted under 1 cm of potting soil and watered every 2-3 days as necessary. Plants were grown in pots (6″ wide×4.5″ deep) with approximately 800 mL of soil for each plant. Seeds germinated approximately 3-5 days after being planted. Plants were grown in a greenhouse under a constant temperature and light environment (25±5° C., 12 hr: 12 hr light: dark cycle). Plants were grown until reaching 1-2 weeks old and 3-4 weeks old; these plants served as the “young” and “old” plants in this study, respectively.
Formulations of the various active ingredients were created using the monoterpenoid derivatives, potassium hydroxide, and Triton-X 100™ to aid in the solvation of the active ingredient. Formulations consisted of 0.5%-1% active ingredient by weight (0.5-1 g/100 ml water), with a 1:1 molar ratio of potassium hydroxide used to aid in the solvation (135-269 mg/100 mL for both thymyloxyacetic acid and carvacryloxyacetic acid). […] Formulations were applied to the soil next to the base of the stem of the plant to avoid foliar contact. Observations were performed 2 days and 3 weeks after soil drench to determine the effects of the treatments on the various types and stages of plants.

Corn plants = assay: Soil drench assay, corn plants; type: in vivo; set-up: key to phytotoxicity (qualitative), soil drench: NOE: No Observable Effect; XXX: Dead; -: the lowest phytotoxic effect; --: phytotoxicity that did not result in death; ---: phytotoxicity that did not result in death; ------: the highest; conditions: for phytotoxicity (qualitative), soil drench: Corn, 40 mL
Procedure: Corn plants were planted under ½″ of potting soil and watered every 2-3 days as necessary. Plants were grown in potting plants (6″ wide×4.5″ deep) with approximately 800 mL of soil for each plant. Seeds germinated approximately 4-7 days after being planted. Plants were grown in a greenhouse under a constant temperature and light environment (25±5° C., 12 hr: 12 hr light: dark cycle). Plants were grown until reaching 1-2 weeks old and 3-4 weeks old; these plants served as the “young” and “old” plants in this study, respectively. Formulations of the various active ingredients were created using the monoterpenoid derivatives, potassium hydroxide, and Triton-X 100™ to aid in the solvation of the active ingredient. […] Formulations were applied to the soil next to the base of the stem of the plant to avoid foliar contact. Observations were performed 2 days and 3 weeks after soil drench to determine the effects of the treatments on the various types and stages of plants.

[2] = tested on: Velvetleaf (Abutilon theophrasti); assay: Weed soil drench assay, velvetleaf; type: in vivo; conditions: for Percentage mortality: Velvet Leaf, 40 mL of 5% solution, soil drench; for chlorosis and phytotoxicity: velvet leaf, 40 ml of 5%, 2 days after application
Procedure: Velvetleaf plants were obtained from the wild in prairie fields in Iowa. Plants were carefully transplanted into pots (6″ wide×4.5″ deep) with approximately 800 mL of soil for each plant. Plants were maintained in a greenhouse under a constant temperature and light environment (25±5° C., 12 hr: 12 hr light: dark cycle). Plants were watered every 2-3 days as needed.
as §2

soybeans = assay: Germination assay, soybeans coated with compound; type: in vivo, soybean; conditions: beans coated in 1% weight compound/weight bean
Text: Soybeans were susceptible to Aphis glycines infestation and were not determined to be a biotype that was resistant to infestation, which could confide results. Germination typically occurred between 3-5 days after moistening.

[3] = tested on: Giant Foxtail (Setaria faberi); assay: Weed soil drench assay, giant foxtail; type: in vivo; conditions: for Percentage mortality: Giant Foxtail, 40 mL of 5% solution, soil drench; for chlorosis and phytotoxicity: giant foxtail, 40 mL of 5%, 2 days after application
Procedure: Giant foxtail seeds were obtained from the Department of Agronomy at Iowa State University. Three seeds were sown for each pot (6″ wide×4.5″ deep) with approximately 800 mL of soil for each plant. Only plants that germinated were used for the study. Plants were treated 1-2 weeks post emergence. Plants were watered every 2-3 days as needed.
as §2

[4] = 2-days after treatment, Old Plants, 0.50%
[5] = 2-days after treatment, Old Plants, 1%
[6] = 2-days after treatment, Young Plants, 0.50%
[7] = 2-days after treatment, Young Plants, 1%
[8] = 3-weeks after treatment, Old Plants, 0.50%
[9] = 3-weeks after treatment, Young Plants, 0.50%
[10] = 3-weeks after treatment, Young Plants, 1%
[11] = 3-weeks after treatment, Old Plants, 1%
[12] = young plants, 2 days after exposure, both concentrations
[13] = listed as Carvacryloxyacetic acid

Compound	pre-emergent effect on corn (words) (Corn)	qualitative growth assessment, pre-emergence (Corn)	pre-emergent effect on wood sorrel (words) (Wood sorrel)	qualitative growth assessment, pre-emergence (Wood sorrel)	Percentage mortality ([1]; 2-days after treatment)	Percentage mortality ([1]; 3-weeks after treatment)	chlorosis and phytotoxicity [1]	corn seed germination at day 3 (corn seeds)	phytotoxicity (qualitative), soil drench (Soybean plants; [4])	phytotoxicity (qualitative), soil drench (Soybean plants; [5])	phytotoxicity (qualitative), soil drench (Soybean plants; [6])	phytotoxicity (qualitative), soil drench (Soybean plants; [8])	phytotoxicity (qualitative), soil drench (Soybean plants; [9])	phytotoxicity (qualitative), soil drench (Soybean plants; [10])	effect on corn plants, soil drench (Corn plants; 3 weeks after exposure)	phytotoxicity (qualitative), soil drench (Corn plants; [4])	phytotoxicity (qualitative), soil drench (Corn plants; [5])	phytotoxicity (qualitative), soil drench (Corn plants; [6])	phytotoxicity (qualitative), soil drench (Corn plants; [7])	phytotoxicity (qualitative), soil drench (Corn plants; [8])	other results
Cc1ccc(C(C)C)c(OCC(=O)O)c1 [thymyloxyacetic acid, 2-(2-isopropyl-5-methylphenoxy)acetic acid]	significantly inhibited; also recorded: capable of inhibiting the growth	−	significantly inhibited	−	100%	100%	significant chlorosis and phytotoxicity	prevented any germination	-	-	--	-	XXX	XXX	caused phytotoxicity	--	---	-	-	XXX	pre-emergent effect on wood sorrel (words) (Wood sorrel; listed as Thymyloxyacetic acid): major inhibition of growth; inhibition of corn seed germination (corn seeds; seed coating 1% weight compound/weight seed, 3, 5, 7 days): second most significant inhibition; phytotoxicity (qualitative), soil drench (Soybean plants; [7]): ---; effect on soybean plants, soil drench (Soybean plants; old plant, 3 weeks after exposure, 0.5%): significant wilting and chlorosis; effect on soybean plants, soil drench (Soybean plants; old plants, 3 weeks after exposure, 1%): experienced mortality; mortality of soybean plants, soil drench (Soybean plants; young plants, 3 weeks after exposure): 100%; effect on soybean plants, soil drench (Soybean plants; young plants, 2 days after exposure, 0.5%): Minor inhibition; effect on soybean plants, soil drench (Soybean plants; young plants, 2 days after exposure, 1%): major inhibition; phytotoxicity (qualitative), soil drench (Corn plants; [11]): XXX; phytotoxicity (qualitative), soil drench (Corn plants; [9]): XXX; phytotoxicity (qualitative), soil drench (Corn plants; [10]): XXX; effect on corn plants, soil drench (Corn plants; older plants, 2 days after treatment, 0.5% and 1%): significant phytotoxic effects; effect on corn plants, soil drench (Corn plants; [12]): did not show any significant effects; Percentage mortality ([2]; 2-days after treatment): 100%; Percentage mortality ([2]; 3-weeks after treatment): 100%; chlorosis and phytotoxicity [2]: significant chlorosis and phytotoxicity; inhibition of soybean germination/growth (words) (soybeans): prevented the growth of soybeans; Percentage mortality ([3]; 2-days after treatment): 100%; Percentage mortality ([3]; 3-weeks after treatment): 100%; chlorosis and phytotoxicity [3]: significant chlorosis and phytotoxicity
Cc1ccc(C(C)C)cc1OCC(=O)O [carvacryloxyacetic acid, 2-(5-isopropyl-2-methylphenoxy)acetic acid]	significant inhibition in corn growth	− −	completely prevented from growing	− −	100%	100%	significant chlorosis and phytotoxicity	some level of germination	--	---	---	XXX	XXX	XXX	caused phytotoxicity	-	--	-	-	XXX	pre-emergent effect on corn (words) (Corn; [13]): significantly inhibited the growth; pre-emergent effect on wood sorrel (words) (Wood sorrel; [13]): significantly inhibited the growth; effect on corn plants, soil drench (Corn plants; 3 weeks, 1%): did not cause mortality; phytotoxicity (qualitative), soil drench (Corn plants; [11]): XXX; phytotoxicity (qualitative), soil drench (Corn plants; [9]): XXX; phytotoxicity (qualitative), soil drench (Corn plants; [10]): --; effect on corn plants, soil drench (Corn plants; older plants, 2-days, 0.5%): did not cause any significant effects; effect on corn plants, soil drench (Corn plants; [12]): did not show any significant effects; Percentage mortality ([2]; 2-days after treatment): 100%; Percentage mortality ([2]; 3-weeks after treatment): 100%; chlorosis and phytotoxicity [2]: significant chlorosis and phytotoxicity; inhibition of soybean germination/growth (words) (soybeans): prevented the growth of soybeans; Percentage mortality ([3]; 2-days after treatment): 100%; Percentage mortality ([3]; 3-weeks after treatment): 100%; chlorosis and phytotoxicity [3]: significant chlorosis and phytotoxicity
